Data on 102 compounds can be found in PubChem BioAssay AID1996.

Values after ≈ are worked out from the molar mass of the structure shown.

For orientation: kinetic solubility means solubility judged after dilution from a stock solution rather than from solid.

The conditions of this data set: buffer; pH 7.4; 200.0 µM.
As to `CCOc1ncccc1C(=O)Nc1ccc2c(c1)OCCCO2`, the kinetic solubility was greater than 47.2 µg/mL. `Cc1ccc(-c2nc(C#N)c(N3CCC(C)CC3)o2)cc1` yielded a kinetic solubility of less than 0.2 µg/mL. Next, `O=C(NC1CCCCC1)c1ccccc1C(F)(F)F`: 38.9 µg/mL (≈ 143 µM); `CCCN(Cc1ccccc1)C(=S)Nc1ccc(F)cc1`: 39.2 µg/mL (≈ 130 µM); `O=C(c1ccncc1)N1CCN(S(=O)(=O)c2ccc(OC(F)(F)F)cc2)CC1`: 36.6 µg/mL (≈ 88.1 µM). Next, `COC(=O)CN(C#N)c1nc(N(C)C)nc(N(C)C)n1`: 31.2 µg/mL (≈ 112 µM). `CNC(=S)N(Cc1ccc(Cl)cc1)Cc1cccs1` displayed a solubility (kinetic) of 16 µg/mL (≈ 51.5 µM). Next, `CC1CCCN(C(=O)COC(=O)COc2ccc(Cl)cc2)C1` (configuration not stated): 20.2 µg/mL (≈ 62 µM); `COc1ccccc1S(=O)(=O)N1CCn2cccc2C1C` (configuration not stated): greater than 46 µg/mL; `O=C(Nc1ccccc1N1CCN(C(=O)c2ccccc2)CC1)c1ccco1`: greater than 56.3 µg/mL.

`COc1ccc(-c2ncnc(C(F)(F)F)c2-c2csc(C)n2)c(O)c1`: the kinetic solubility was found to be 53.1 µg/mL (≈ 145 µM). `CC(C)c1ccc(OCC(=O)NC2=NCCS2)cc1` showed a kinetic solubility of 15.8 µg/mL (≈ 56.8 µM).

`COc1cccc(CNC(=O)CCCNC(=O)c2ccc(Cl)cc2)c1` registered a kinetic solubility of 37.8 µg/mL (≈ 105 µM). Next, `Cc1cc(C(=O)NC2CCCCC2C)c2ccccc2n1` (configuration not stated): greater than 42.4 µg/mL.

In turn, `Cc1ccc(CN(C)C(=O)c2cc(S(=O)(=O)N3CCOCC3)ccc2F)o1` had a solubility (kinetic) greater than 59.5 µg/mL. Next, `NS(=O)(=O)c1cccc(NC(=O)CC2(CC(=O)O)CCCC2)c1`: 41.7 µg/mL (≈ 123 µM). `COc1ccc(C(=O)NCCNc2ccc([N+](=O)[O-])cn2)cc1`: the kinetic solubility was 16.4 µg/mL (≈ 51.8 µM). This solubility kinetic lies about 2.5-fold lower than the previous one. The result for `Cc1ccc2c(c1)N(CC(=O)Nc1ccccc1F)C(=O)CO2` reads 0.7 µg/mL (≈ 2.23 µM). As to `Cc1nonc1NC(=O)c1oc2ccc(F)cc2c1C`, the kinetic solubility was 0.7 µg/mL (≈ 2.54 µM). Next, `CC1(C)CC(NC(=O)c2cc(Cl)ccc2Cl)CC(C)(C)N1`: greater than 49.4 µg/mL. Compound `O=C(Nc1ccc2ccccc2n1)C1CCCCC1` showed a kinetic solubility of 26.6 µg/mL (≈ 105 µM). Next, `Cc1cc(O)c(CN(C)C)c2c1C(=O)/C(=C/c1ccco1)O2`: greater than 44.9 µg/mL. The result for `CSc1ncc(Sc2ccccc2)c(C(=O)O)n1` reads 38.4 µg/mL (≈ 138 µM). The result for `COc1ccc(C(=O)N/C(=C\c2ccccc2)C(=O)Nc2ccccc2C(=O)O)cc1` reads greater than 62.5 µg/mL; that for `O=C(Nc1c(-c2cccs2)nc2ccccn12)c1ccccc1F`, 47.1 µg/mL (≈ 140 µM); that for `CCCCc1ccc(S(=O)(=O)NC2CCS(=O)(=O)C2)cc1` (configuration not stated), 47.9 µg/mL (≈ 145 µM).

Regarding `Cc1cc(C(=O)COC(=O)c2cccc(NS(C)(=O)=O)c2)c(C)n1CC1CCCO1` (configuration not stated), the solubility (kinetic) is 43.5 µg/mL (≈ 100 µM). Compound `O=[N+]([O-])c1ccc(Cl)c(NC(=S)N2CCCC2)c1` had a solubility (kinetic) of 9.7 µg/mL (≈ 33.9 µM).

For the compound `Cc1noc(NS(=O)(=O)c2ccc(NC(=O)c3cc4ccccc4o3)cc2)c1C`, the kinetic solubility was 61.6 µg/mL (≈ 150 µM). Next, `O=C(Nc1cccc2ccccc12)c1ccc([N+](=O)[O-])cc1`: 1 µg/mL (≈ 3.42 µM); `COc1ccc(CCC(=O)NCCOc2ccc(C)cc2)cc1`: 24 µg/mL (≈ 76.6 µM). `CS(=O)(=O)c1ccc([C@@H](O)[C@@H](CO)NC(=O)C(Cl)Cl)cc1` came in with a kinetic solubility greater than 53.4 µg/mL. For the compound `Cc1ccc2nsnc2c1S(=O)(=O)Nc1ccccc1C(=O)O`, the solubility (kinetic) was greater than 52.4 µg/mL. `Cc1nnc(SCC(=O)NC23CC4CC(CC(C4)C2)C3)s1`: the kinetic solubility was greater than 48.5 µg/mL. The result for `CC(C)N(Cc1ccccc1)C(=O)COC(=O)c1cc[n+]([O-])cc1` reads greater than 49.3 µg/mL; that for `NS(=O)(=O)c1cc(C(=O)Nc2ccc3c(c2)CCC3)ccc1Cl`, 4.6 µg/mL (≈ 13.1 µM); that for `O=C(NC(=S)N1CCCCCC1)c1cccc([N+](=O)[O-])c1`, greater than 46.1 µg/mL. Next, `CCn1c(=O)c2sccc2n(CC(=O)NC2CCCC2)c1=O`: 45.4 µg/mL (≈ 141 µM).

Take `CCCNC(=O)Cn1sc2nc(C)cc(C)c2c1=O`: the solubility (kinetic) was greater than 41.9 µg/mL. Compound `O=C1CSC(=S)N1c1cccc(Cl)c1` registered a kinetic solubility of 0.7 µg/mL (≈ 2.87 µM). Regarding `NC(=O)C1CCN(c2ccc([N+](=O)[O-])cc2Cl)CC1`, the kinetic solubility was found to be 3.3 µg/mL (≈ 11.6 µM). Compared with the last compound, the solubility kinetic is about 4.7-fold higher.

Compound `CCOc1ccc(Cc2onc3c2C(=O)CC(C)(C)C3)cc1OCC` displayed a kinetic solubility of 32.6 µg/mL (≈ 94.9 µM). The result for `O=C(N/N=C/c1cccc2ccccc12)c1cccnc1` reads greater than 41.3 µg/mL; that for `CC(C)(C)c1ccc(-c2noc(CNC(=O)c3ccco3)n2)cc1`, 3.8 µg/mL (≈ 11.7 µM); that for `CC(CCN1CCN(CCO)CC1)c1ccccc1` (configuration not stated), 23.1 µg/mL (≈ 88 µM). Next, `O=S(=O)(Nc1cc(S(=O)(=O)N2CCOCC2)ccc1Cl)c1ccccc1`: greater than 62.5 µg/mL; `COc1ccc(/C=C/C(=O)OCC(=O)NC(C)CCc2ccccc2)cc1` (configuration not stated): 3.7 µg/mL (≈ 10.1 µM); `O=C(NCc1ccccc1Cl)NCc1ccccc1Cl`: 1.1 µg/mL (≈ 3.56 µM). Next, `CC1CCC(NC(=O)c2ccc3c(c2)OCO3)CC1` (configuration not stated): 10.4 µg/mL (≈ 39.8 µM). `O=C(NCc1ccco1)c1ccc(-c2ccc(Cl)cc2)o1` showed a kinetic solubility of 1.2 µg/mL (≈ 3.98 µM). On to `Cc1ccccc1CSc1ccc(S(=O)(=O)N2CCCC2)cn1`, for which the solubility (kinetic) was 3.1 µg/mL (≈ 8.9 µM). The compound `CC1CCC(NC(=O)C(=O)Nc2ccc3c(c2)OCO3)CC1` (configuration not stated) yielded a solubility (kinetic) of 0.5 µg/mL (≈ 1.64 µM). This solubility kinetic lies about 6.2-fold lower than the previous one.

`O=C(O)c1cccc(S(=O)(=O)Nc2ccc3c(c2)CCC3)c1` yielded a solubility (kinetic) greater than 47.6 µg/mL. The result for `CC(C)C(NC(=O)c1ccccc1)C(=O)NCCc1ccccc1` (configuration not stated) reads 9.4 µg/mL (≈ 29 µM); that for `O=C(Nc1cccc(N2C(=O)C=CC2=O)c1)c1cccs1`, greater than 44.7 µg/mL; that for `COc1ccc(NC2CCCN(Cc3cccc4cnccc34)C2)cc1` (configuration not stated), 49.4 µg/mL (≈ 142 µM).

`Cc1csc(NC(=O)c2ccc(N3CCCC3=O)cc2)n1`: the solubility (kinetic) was determined as 4.7 µg/mL (≈ 15.6 µM). Turning to `Cl.OC1(C#CCN2CCCC2)CCCCC1`, the kinetic solubility was 34.2 µg/mL. Take `Cc1nc(/N=C(\N)NC(=O)NC2CCCCC2)nc2ccccc12`: the kinetic solubility was 12.7 µg/mL (≈ 38.9 µM). The result for `CC(C)NC(=O)COc1ccc(OCc2ccccc2)cc1` reads 9.5 µg/mL (≈ 31.7 µM); that for `COCN(C#N)c1nc(N(C)C)nc(N(C)C)n1`, greater than 37.7 µg/mL; that for `COc1cccc(NC(=O)C(Cc2ccccc2)n2cccc2)c1` (configuration not stated), 27.2 µg/mL (≈ 84.9 µM). `COc1ccc(CNC(=O)COC(=O)CN2C(=O)C3CC=CCC3C2=O)cc1` (configuration not stated) had a kinetic solubility greater than 58 µg/mL. Next, `CC(C)(C)NC(=O)Cn1c(SCC(=O)NC2CCCC2)nc2ccccc21`: 52.9 µg/mL (≈ 136 µM); `Cn1c(=O)n(CC(=O)O)c(=O)c2c1nc1n2CCCN1Cc1ccccc1`: 51.3 µg/mL (≈ 139 µM); `Cc1nc(NC(=S)NC(=O)c2ccco2)sc1C(=O)N(C)C`: greater than 50.8 µg/mL. Regarding `O=C(Nc1nc2ccccc2s1)Nc1ccc(F)cc1F`, the kinetic solubility was less than 0.2 µg/mL. In turn, `CN1C(=O)C2(OCC(C)([N+](=O)[O-])CO2)c2ccccc21` (configuration not stated) came in with a solubility (kinetic) of 21.7 µg/mL (≈ 78 µM). Next, `Cc1[nH]c(=O)c(C#N)c(C)c1Cl`: 26 µg/mL (≈ 142 µM). `CCN1C(=O)CSC1=Nc1ccc(Cl)c(Cl)c1` had a solubility (kinetic) of 9.8 µg/mL (≈ 33.9 µM). For the compound `CN(NC1OC(=O)c2ccccc21)c1ccc(Cl)cc1[N+](=O)[O-]` (configuration not stated), the kinetic solubility is greater than 50.1 µg/mL. The result for `O=C(NC1CCCCC1)c1cccc(S(=O)(=O)N2CCCCC2)c1` reads 5.6 µg/mL (≈ 16 µM).

For the compound `Cc1c(C(=O)NCc2ccccn2)oc2c(Cl)cccc12`, the kinetic solubility is greater than 45.1 µg/mL. Compound `O=C(Nc1ccc2oc(=O)ccc2c1)c1ccc2ccccc2c1` yielded a kinetic solubility of less than 0.7 µg/mL. The result for `O=C(Cc1ccc(Cl)cc1)Nc1cccnc1` reads 23.3 µg/mL (≈ 94.4 µM).

Turning to `CSc1ncc(CN2CCN(C(C)C)C(CCO)C2)cn1` (configuration not stated), the kinetic solubility was greater than 46.6 µg/mL. In turn, `O=C(CN1CCCc2ccccc21)N1CCc2ccccc21` came in with a solubility (kinetic) of 4.8 µg/mL (≈ 16.4 µM). The result for `CC1CC(C)CN(C(=O)COC(=O)CN2C(=O)c3ccccc3C2=O)C1` (configuration not stated) reads greater than 53.8 µg/mL. Next, `CCOc1cc(C)c(S(=O)(=O)NCc2ccccn2)cc1C`: greater than 48.1 µg/mL. Next, `Cc1ccc(C(=O)Nc2cccc(C(O)c3ccccc3)c2)cc1` (configuration not stated): 2.5 µg/mL (≈ 7.88 µM); `Cc1cccc(N2CCN(CC(=O)NCc3ccccc3)CC2)c1C`: 43.6 µg/mL (≈ 129 µM).

For `CC1CCCCC12NC(=O)N(CC(=O)Nc1ccc(OC(F)F)cc1)C2=O` (configuration not stated), the kinetic solubility stood at 18.2 µg/mL (≈ 47.7 µM). The result for `O=C(CSc1cc(Cl)ccc1Cl)NCCCn1ccnc1` reads 45.3 µg/mL (≈ 132 µM); that for `Cc1ccc(-c2nc(-c3ccncc3)no2)cc1C`, 0.7 µg/mL (≈ 2.79 µM). Next, `O=C(CNC(=O)c1ccc(Br)o1)Nc1ccccc1`: 6.7 µg/mL (≈ 20.7 µM); `O=C(CCCc1c[nH]c2ccccc12)NCc1ccccc1F`: 34.5 µg/mL (≈ 111 µM); `NC(=O)C1CCN(c2ccc(C(F)(F)F)cn2)CC1`: greater than 41 µg/mL.

With `Cc1ccc(SCc2ccc(C(=O)Nc3nccs3)o2)cc1`, the kinetic solubility worked out at 2.2 µg/mL (≈ 6.66 µM).

As for `CC(O)c1cccc(N=Cc2ccc3ccccc3c2O)c1` (configuration not stated), the kinetic solubility came to 7.5 µg/mL (≈ 25.7 µM). The result for `O=C(/C=C/c1ccc(F)cc1)NC(=S)NC1CCCCC1` reads 0.5 µg/mL (≈ 1.63 µM); that for `CC(=O)N[C@H]1C(O)O[C@H](CO)[C@@H](O)[C@@H]1O` (some centres not stated), greater than 33.2 µg/mL; that for `CCC(CO)NCc1sccc1C` (configuration not stated), 26.6 µg/mL (≈ 133 µM). The result for `CC(C)Oc1ccccc1NC(=O)CSc1nccn1C` reads greater than 45.8 µg/mL.

Turning to `COc1ccccc1NC(=O)Cn1c([N+](=O)[O-])cnc1C`, the solubility (kinetic) is greater than 43.5 µg/mL.

Regarding `O=[N+]([O-])c1ccc(N2CCN(CC3CCCCC3)CC2)cc1`, the solubility (kinetic) was determined as 2.1 µg/mL (≈ 6.92 µM). As to `O=C(COC(=O)c1ccc[n+]([O-])c1)Nc1ccc([N+](=O)[O-])cc1C(F)(F)F`, the solubility (kinetic) was greater than 57.8 µg/mL. `Cc1cccc(NC(=S)N(CCN(C)C)C(C)c2cccnc2)c1` (configuration not stated) yielded a kinetic solubility greater than 51.4 µg/mL.

For `Cc1ccc(S(=O)(=O)N2CCN(c3ncnc4scc(-c5ccccc5)c34)CC2)cc1`, the kinetic solubility is 0.9 µg/mL (≈ 2 µM). The result for `Cc1nc2c(=O)n(-c3ccc(F)cc3F)nc(C)c2s1` reads greater than 44 µg/mL; that for `COc1ccc2c(c1)CCC(C)N2C(=O)C(=O)c1c[nH]c2ccccc12` (configuration not stated), 0.6 µg/mL (≈ 1.72 µM). Next, `COc1cccc(C(=O)NCC2(c3ccccc3)CCCC2)c1OC`: 15.3 µg/mL (≈ 45.1 µM); `CC1CCCC(NCC(=O)Nc2ccc(C(N)=O)cc2)C1C` (configuration not stated): greater than 45.5 µg/mL.
